Eleven compounds from US4663323A, “Tetrazole derivatives, anti-ulcer composition containing the same and method for treating ulcers” (Otsuka Pharmaceutical Co., Ltd., priority 1984, dated 1987) can be followed below.

SMILES strings stand for the structures. Like-named read-outs stand apart in the source and are kept apart here. A value given as a limit tells only on which side of the number the result lay.

Series [1] has as its system gastric juice secretion. The experiment in a line: Shay rat pylorus ligation method (gastric juice secretion-inhibiting activity). It is filed as in vivo, male Wistar rats. Particulars: sc, 4 h, 100 mg/kg s.c., 30 min before pylorus ligation, measured 4 hours after ligation. As to the method: The pharmacological activities of the compouns (I) were tested by a Shay rat pylorus ligation method (cf. H. Shay et al: Gastroenterol., Vol. 5, page 43, 1945) which is the most popular method for testing of gastric juice secretion-inhibiting activity. The test was carried out by using male Wistar rats, weighing about 170 g and fasting for 24 hours.
Test compounds were administered 30 minutes before the pylorus ligation in a dose of 100 mg/kg in subcutaneous route, and the volume, total acidity and/or pepsin activity of the gastric juice were measured 4 hours after the ligation. As a control, a saline solution was administered instead of the test compound. The inhibitory ratio (%) of the test compounds were calculated when the inhibitory activities of the control were counted as zero (0).
(§1) In the table, the inhibitory ratio (%) was evaluated as follows: […]

Series [2] concerns Stress Ulcer. The series is described as follows: Stress Ulcer. Particulars: oral, 1×10^-3 mole in 0.5% CMC, before restraint and water dipping at 23° C. for 7 hours. It is filed as in vivo, male Wistar rats. As to the method:
After male Wistar rats weighing about 170 g was fasted for 24 hours, the rats were restrained in a stress cage and dipped in water bath at 23° C. till chest of the animals. After 7 hours, the rats were killed and the stomach was isolated. Into the isolated stomach 10% formalin (8 ml) was poured and settled. The stomach was cut open at the greater curvature, and the length of each ulcer on the membrane was measured. Sum of the length of all ulcers was shown as ulcer index (UI). The test compound was orally administered to the rats before restraint in a stress cage in the form of 0.5% CMC suspension in a concentration of 1×10^-3 mole. As a control, only the solvent (CMC solution) was administered likewise.
The inhibitory ratio (%) of stress ulcer of the test compounds was calculated by the following equation: [formula]
as §1

Series [3] in a line: Acute Toxicity. Particulars: rat, in vivo, po, male Wistar rats. As to the method: The test compounds were orally administered to male Wistar rats, and the half lethal dose (LD50) was measured.
The mark [4] stands for this setting: saline control = 0, read-out: Inhibitory ratio, Pepsin activity.
Where [5] appears, read: saline control = 0, read-out: Inhibitory ratio, Total acidity.
Setting [6] is: saline control = 0, read-out: Inhibitory ratio, Volume of gastric juice.

As a reminder, the LD50 is the dose expected to kill half of the subjects tested. Read a low LD50 as a more toxic substance. On to `CCN(CC)C(=O)CCCSc1nnnn1C` [Compound 1, N,N-Diethyl-4-(1-methyl-1,2,3,4-tetrazol-5-yl)thio-butyramide], for which the inhibition in vivo at 100 mg/kg in series [1] (setting [4]), in series [1] (setting [5]) and in series [1] (setting [6]) was greater than 50% each time. For the same compound, the “Inhibitory ratio of stress ulcer” value in series [2] was “++ (more than 60%)”. Besides, the LD50 in series [3] was greater than 500 mg/kg.
On to `CCN(C(=O)CCCCc1nnnn1-c1ccccc1)C1CCCCC1` [Compound 4, N-Ethyl-N-cyclohexyl-5-(1-phenyl-1,2,3,4-tetrazol-5-yl)valeramide], for which the inhibition in vivo at 100 mg/kg in series [1] (setting [4]), in series [1] (setting [5]) and in series [1] (setting [6]) was 10 to 50% throughout. The “Inhibitory ratio of stress ulcer” value in series [2] is “++ (more than 60%)”. In series [3], this compound displayed an LD50 greater than 500 mg/kg.
Turning to `CCN(CC)C(=O)CCCCc1nnnn1C1CCCCC1` [Compound 5, N,N-Diethyl-5-(1-cyclohexyl-1,2,3,4-tetrazol-5-yl)valeramide], the inhibition in vivo at 100 mg/kg in series [1] (setting [4]), in series [1] (setting [5]) and in series [1] (setting [6]) was 10 to 50% in each case. The same compound displayed an LD50 in series [3] greater than 500 mg/kg.
Turning to `Cn1nnnc1SCCCC(=O)NC1CCCCC1` [Compound 6, N-Cyclohexyl-4-(1-methyl-1,2,3,4-tetrazol-5-yl)thio-butyramide], the inhibition in vivo at 100 mg/kg in series [1] (setting [4]), in series [1] (setting [5]) and in series [1] (setting [6]) was 10 to 50% in each case. This compound had an LD50 in series [3] greater than 500 mg/kg.
For the compound `CCN(C(=O)CCCSc1nnnn1C)C1CCCCC1O` (stereo not shown) [Compound 8, N-Ethyl-N-(2-hydroxycyclohexyl)-4-(1-methyl-1,2,3,4-tetrazol-5-yl)thio-butyramide], the inhibition in vivo at 100 mg/kg in series [1] (setting [4]), in series [1] (setting [5]) and in series [1] (setting [6]) was 10 to 50% throughout. Also, the LD50 in series [3] is greater than 500 mg/kg.
Turning to `CCN(C(=O)CCCSc1nnnn1C)c1ccccn1` [Compound 10, N-Ethyl-N-(2-pyridyl)-4-(1-methyl-1,2,3,4-tetrazol-5-yl)thio-butyramide], the inhibition in vivo at 100 mg/kg in series [1] (setting [5]) lay within 10 to 50%. This compound displayed an LD50 in series [3] greater than 500 mg/kg.
For `COc1ccc(CCN(C(=O)CCCSc2nnnn2C)C2CCCCC2)cc1OC` [Compound 11, N-Cyclohexyl-N-[2-(3,4,-dimethoxyphenyl)-ethyl]-4-(1-methyl-1,2,3,4-tetrazol-5-yl)thio-butyramide], the inhibition in vivo at 100 mg/kg in series [1] (setting [4]), in series [1] (setting [5]) and in series [1] (setting [6]) was 10 to 50% each time. The same compound returned an LD50 in series [3] greater than 500 mg/kg.
As for `CCc1ccc(-n2nnnc2CSCCC(=O)N(CC)CC)cc1` [Compound 12, N,N-Diethyl-3-[1-(4-ethylphenyl)-1,2,3,4-tetrazol-5-yl]methylthio-propionamide], the inhibition in vivo at 100 mg/kg in series [1] (setting [4]), in series [1] (setting [5]) and in series [1] (setting [6]) was 10 to 50% in each case. This compound showed an LD50 in series [3] greater than 500 mg/kg.
Take `Cn1nnnc1SCCCC(=O)NCc1ccco1` [Compound 13, N-Furfuryl-4-(1-methyl-1,2,3,4-tetrazol-5-yl)thio-butyramide]: the inhibition in vivo at 100 mg/kg in series [1] (setting [4]), in series [1] (setting [5]) and in series [1] (setting [6]) was 10 to 50% each time. In series [3], this compound showed an LD50 greater than 500 mg/kg.
Turning to `CCNC(=O)CCSCc1nnnn1-c1ccccc1` [Compound 16, N-Ethyl-3-(1-phenyl-1,2,3,4-tetrazol-5-yl)-methylthio-propionamide], in series [2], the “Inhibitory ratio of stress ulcer” value was “+ (30 to less than 60%)”. Further, the LD50 in series [3] is greater than 500 mg/kg.
The corresponding values for `CCNC(=O)CCCSCc1nnnn1CC` [Compound 17, N-Ethyl-4-(1-ethyl-1,2,3,4-tetrazol-5-yl)-methylthio-butyramide] are “+ (30 to less than 60%)” and greater than 500 mg/kg.
